These results are taken from PubChem BioAssay AID1671212.

The assay has as its target Casein kinase I isoform gamma-3 (Homo sapiens) (UniProt Q9Y6M4). In words: PubChem AID 1671212. The conditions noted are these: Z'-LYTE FRET peptide phosphorylation, recombinant CSNK1G3.

Chain of Casein kinase I isoform gamma-3 (Homo sapiens) (Q9Y6M4 whole entry, looked up, canonical isoform): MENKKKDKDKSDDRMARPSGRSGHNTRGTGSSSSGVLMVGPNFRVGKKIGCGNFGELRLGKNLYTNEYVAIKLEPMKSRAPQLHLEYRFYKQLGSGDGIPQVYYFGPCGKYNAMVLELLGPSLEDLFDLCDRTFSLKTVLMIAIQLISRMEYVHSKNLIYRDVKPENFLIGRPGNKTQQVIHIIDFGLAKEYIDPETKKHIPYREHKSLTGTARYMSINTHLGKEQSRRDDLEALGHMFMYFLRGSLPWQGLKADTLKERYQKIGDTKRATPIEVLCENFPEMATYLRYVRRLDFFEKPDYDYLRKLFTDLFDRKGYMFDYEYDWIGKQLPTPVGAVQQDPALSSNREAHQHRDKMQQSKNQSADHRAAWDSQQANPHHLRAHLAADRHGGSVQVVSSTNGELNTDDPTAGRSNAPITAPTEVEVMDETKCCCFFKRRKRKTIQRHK

In general, IC50 refers to the concentration that gives 50% inhibition. On to `Brc1c(Br)c(Br)c2n[nH]nc2c1Br`, for which the IC50 was 69.9 µM.
